{
  "source": "patent US10017523B2",
  "about": "“NAMPT inhibitors and methods” (Genzyme Corporation, priority 2014, dated 2018)",
  "key": {"Recombinant NAMPT enzyme": {"target": "T1, Recombinant NAMPT enzyme (Homo sapiens, UniProt P43490)", "T1 construct": "purchased MBL", "T1 sequence (P43490 whole entry)": "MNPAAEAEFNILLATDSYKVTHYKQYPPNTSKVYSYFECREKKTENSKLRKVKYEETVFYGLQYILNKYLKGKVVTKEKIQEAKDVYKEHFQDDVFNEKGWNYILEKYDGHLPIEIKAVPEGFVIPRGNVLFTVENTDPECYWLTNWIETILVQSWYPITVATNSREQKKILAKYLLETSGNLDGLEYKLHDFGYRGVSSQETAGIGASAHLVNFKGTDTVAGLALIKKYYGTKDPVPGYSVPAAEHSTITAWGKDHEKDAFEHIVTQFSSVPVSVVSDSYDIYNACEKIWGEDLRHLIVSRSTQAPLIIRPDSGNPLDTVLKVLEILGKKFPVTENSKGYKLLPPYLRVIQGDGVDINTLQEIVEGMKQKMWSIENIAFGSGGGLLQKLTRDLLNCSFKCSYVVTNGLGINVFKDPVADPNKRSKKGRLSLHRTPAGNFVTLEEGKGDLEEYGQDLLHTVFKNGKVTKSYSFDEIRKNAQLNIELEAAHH", "experiment": "Inhibition of NAMPT enzymatic activity", "type": "biochemical", "details": "for IC50: 6 hours at 37° C., NMN product detected", "protocol": "Recombinant NAMPT enzyme (MBL) was briefly pre-incubated in the absence or presence of inhibitor followed by addition of nicotinamide. Enzymatic reaction was allowed to proceed for 6 hours at 37° C. Reaction was terminated and NMN reaction product detected using the method as described in: Zhang R Y, Qin Y, Lv X Q, Wang P, Xu T Y, Zhang L, Miao C Y., Anal. Biochem. 2011 May 1; 412(1):18-25.\n(§1) The 50% inhibitory concentration (IC50) is the concentration at which 50% of the maximal activity was inhibited."}, "primary human B cells": {"tested_on": "primary human B cells", "experiment": "Anti-proliferative activity on B cells (anti-IgM stimulated, CellTiterGlo)", "type": "cell-based", "details": "B-cell, 72 h, anti-IgM 10 ug/ml", "protocol": "(§2) Fresh primary human B cells obtained from Analytical Biological Services (Wilmington, Del.) were diluted to 1×10^^6 cells per ml in AIM-V medium (Invitrogen), and stimulated with anti-IgM (10 ug/ml) (KPL) in the absence or presence of inhibitor for 72 hours at 37° C./5% CO2 prior to viability determination using CellTiterGlo (Promega) per manufacturer's instruction.\nas §1"}, "primary human T cells": {"tested_on": "primary human T cells", "experiment": "Anti-proliferative activity on T cells (CD3/CD28 stimulated, CellTiterGlo)", "type": "cell-based", "details": "T-cell, 72 h, CD3/CD28 beads", "protocol": "as §2, with “human T” for “human B”, “with CD3/CD28 beads (Invitrogen)” for “with anti-IgM (10 ug/ml) (KPL)”\nas §1"}, "[1]": {"tested_on": "acute T-cell leukemia (JURKAT)", "experiment": "Anti-proliferative activity on JURKAT cell line", "type": "cell-based", "details": "Homo sapiens, 72 h, CellTiterGlo", "protocol": "(§3) Leukemia/Lymphoma cell lines (ATCC) were diluted in vendor-recommended media and incubated in the absence or presence of inhibitor for 72 hours at 37° C./5% CO2 prior to viability determination using CellTiterGlo (Promega) per manufacturer's instruction. The human cell lines studied include acute T-cell leukemia (JURKAT), chronic myelogenous leukemia (K562), and B-cell acute lymphocytic leukemia (NALM6 and SUP-B15)."}, "[2]": {"tested_on": "chronic myelogenous leukemia (K562)", "experiment": "Anti-proliferative activity on K562 cell line", "type": "cell-based", "details": "Homo sapiens, K562, 72 h, CellTiterGlo", "protocol": "as §3"}, "[3]": {"tested_on": "B-cell acute lymphocytic leukemia (NALM6)", "experiment": "Anti-proliferative activity on NALM6 cell line", "type": "cell-based", "details": "Homo sapiens, NALM-6, 72 h, CellTiterGlo", "protocol": "as §3"}, "[4]": {"tested_on": "B-cell acute lymphocytic leukemia (SUP-B15)", "experiment": "Anti-proliferative activity on SUP-B15 cell line", "type": "cell-based", "details": "Homo sapiens, SUP-B15, 72 h, CellTiterGlo", "protocol": "as §3"}, "Sup-B15 cells": {"tested_on": "Sup-B15 cells", "experiment": "Mechanism of action: NMN rescue of viability", "type": "cell-based, human", "details": "200 μM NMN, 72 hours", "protocol": "Sup-B15 cells (ATCC) were incubated in media lacking or containing 200 μM nicotinamide mononucleotide (NMN) (Sigma) in the absence or presence of inhibitor for 72 hours at 37° C./5% CO2 prior to viability determination using CellTiterGlo (Promega) per manufacturer's instruction."}, "Sup-B15 cell extract": {"target": "T2, Sup-B15 cell extract (Homo sapiens, UniProt P43490)", "T2 construct": "host or cells: Sup-B15 cells", "T2 sequence (P43490 whole entry)": "as above", "experiment": "Chemical proteomics pull-down from Sup-B15 cell extract", "type": "binding", "details": "biotinylated derivative, streptavidin beads, elution with free compound, LC/MS", "protocol": "Chemical proteomics. Sup-B15 cell extract was incubated with a biotinylated derivative of 4-(1′-isopropyl-4-oxospiro[chroman-2,4′-piperidin]-6-yl)-N-((3-methylisoxazol-5-yl)methyl)benzamide, followed by collection of compound/protein complexes with streptavidin beads (Invitrogen). […] Following SDS-PAGE, one prominent band was excised and identified by LC/MS as NAMPT."}, "NALM6 leukemia model": {"tested_on": "NALM6 leukemia model", "experiment": "NALM6 leukemia study (survival)", "type": "in vivo, female CB17SCID/Crl mice", "details": "i.p. twice daily for 35 days, compared with clofarabine", "protocol": "4-(1′-isopropyl-4-oxospiro[chroman-2,4′-piperidin]-6-yl)-N-((3-methylisoxazol-5-yl)methyl)benzamide was tested in the NALM6 leukemia model. […] 5×10^^6 NALM-6 cells were injected via tail vein into female CB17SCID/Crl mice (Charles River). One week later, 4-(1′-isopropyl-4-oxospiro[chroman-2,4′-piperidin]-6-yl)-N-((3-methylisoxazol-5-yl)methyl)benzamide was administered by i.p. injection twice daily for 35 days. Clofarabine was administered once daily by i.p. injection once daily for 5 days for four weeks. Study endpoint was survival time, and mice were sacrificed upon appearance of systemic signs of severe disease such as paralysis or cachexia."}, "HCT116 solid tumor model": {"tested_on": "HCT116 solid tumor model", "experiment": "HCT116 tumor growth study", "type": "in vivo, Female athymic nude mice", "details": "oral twice daily", "protocol": "Tumor Growth Study: Female athymic nude mice (Crl:NU(Ncr)-Foxn1nu, Charles River) (n=10/group) were injected with 5×10^6 HCT116 cells, and treatment was initiated at average tumor size of 100 mm^3. 4-(1′-isopropyl-4-oxospiro[chroman-2,4′-piperidin]-6-yl)-N-((3-methylisoxazol-5-yl)methyl)benzamide and vehicle control were administered orally twice daily for 8 days. Tumor size was measured twice weekly with calipers.\n4-(1′-isopropyl-4-oxospiro[chroman-2,4′-piperidin]-6-yl)-N-((3-methylisoxazol-5-yl)methyl)benzamide was also tested in the HCT116 solid tumor model."}},
  "data": [
    {"smiles": "Cc1cc(CNC(=O)c2ccc(-c3ccc4c(c3)C(=O)CC3(CCN(C(C)C)CC3)O4)cc2)on1", "note": "[4-(1′-isopropyl-4-oxospiro[chroman-2,4′-piperidin]-6-yl)-N-((3-methylisoxazol-5-yl)methyl)benzamide]", "values": [
      {"measurement": "inhibition of NAMPT enzyme activity", "setting": "Recombinant NAMPT enzyme", "result": "potently inhibits NAMPT enzyme activity"},
      {"measurement": "IC50", "setting": "Recombinant NAMPT enzyme", "result": 0.0009, "unit": "µM"},
      {"measurement": "IC50", "setting": "primary human B cells", "result": 0.0227, "unit": "µM"},
      {"measurement": "IC50", "setting": "primary human T cells", "result": 4.38, "unit": "µM"},
      {"measurement": "IC50", "setting": "[1]", "result": 0.0179, "unit": "µM"},
      {"measurement": "IC50", "setting": "[2]", "result": 0.0681, "unit": "µM"},
      {"measurement": "IC50", "setting": "[3]", "result": 0.015, "unit": "µM"},
      {"measurement": "IC50", "setting": "[4]", "result": 0.00244, "unit": "µM"},
      {"measurement": "effect of NMN on anti-proliferative activity", "setting": "Sup-B15 cells", "result": "counteracted by NMN"},
      {"measurement": "molecular target identified", "setting": "Sup-B15 cell extract", "result": "nicotinamide phosphoribosyl transferase (NAMPT)"},
      {"measurement": "survival", "setting": "NALM6 leukemia model", "result": "significant survival benefit in this xenograft model, in excess of the standard of care (clofarabine)"},
      {"measurement": "mortality in the treated group", "setting": "HCT116 solid tumor model", "result": 10, "unit": "%"},
      {"measurement": "persistence of tumor growth delay after dosing was stopped", "setting": "HCT116 solid tumor model", "result": "persisted for at least one week after dosing was stopped"},
      {"measurement": "tumor growth", "setting": "HCT116 solid tumor model", "result": "significant tumor growth delay"}
    ]},
    {"smiles": "CCCN1CCC2(CC1)CC(=O)c1cc(-c3ccc(C(=O)NCc4cc(C)no4)cc3)ccc1O2", "note": "[N-((3-methylisoxazol-5-yl)methyl)-4-(4-oxo-1′-propylspiro[chroman-2,4′-piperidin]-6-yl)benzamide]", "values": [
      {"measurement": "IC50", "setting": "Recombinant NAMPT enzyme", "result": 0.002, "unit": "µM"},
      {"measurement": "IC50", "setting": "primary human B cells", "result": 0.0129, "unit": "µM"},
      {"measurement": "IC50", "setting": "primary human T cells", "result": 0.677, "unit": "µM"},
      {"measurement": "IC50", "setting": "[1]", "result": 0.00778, "unit": "µM"},
      {"measurement": "IC50", "setting": "[2]", "result": 0.025, "unit": "µM"},
      {"measurement": "IC50", "setting": "[3]", "result": 0.00674, "unit": "µM"},
      {"measurement": "IC50", "setting": "[4]", "result": 0.00207, "unit": "µM"}
    ]},
    {"smiles": "Cc1cc(CNC(=O)c2ccc(-c3ccc4c(c3)C(=O)CC3(CCN(C(C)C)CC3)O4)cc2)no1", "note": "[4-(1′-isopropyl-4-oxospiro[chroman-2,4′-piperidin]-6-yl)-N-((5-methylisoxazol-3-yl)methyl)benzamide]", "values": [
      {"measurement": "IC50", "setting": "Recombinant NAMPT enzyme", "result": 0.001, "unit": "µM"},
      {"measurement": "IC50", "setting": "primary human B cells", "result": 0.0113, "unit": "µM"},
      {"measurement": "IC50", "setting": "primary human T cells", "result": 3.24, "unit": "µM"},
      {"measurement": "IC50", "setting": "[1]", "result": 0.0107, "unit": "µM"},
      {"measurement": "IC50", "setting": "[2]", "result": 0.0636, "unit": "µM"},
      {"measurement": "IC50", "setting": "[3]", "result": 0.00269, "unit": "µM"},
      {"measurement": "IC50", "setting": "[4]", "result": 0.00117, "unit": "µM"}
    ]},
    {"smiles": "COCCCCN1CCC2(CC1)CC(=O)c1cc(-c3ccc(C(=O)NCc4cncc(F)c4)cn3)ccc1O2", "note": "[N-((5-fluoropyridin-3-yl)methyl)-6-(1′-(4-methoxybutyl)-4-oxospiro[chroman-2,4′-piperidin]-6-yl)nicotinamide]", "values": [
      {"measurement": "IC50", "setting": "Recombinant NAMPT enzyme", "result": 0.0042, "unit": "µM"},
      {"measurement": "IC50", "setting": "primary human B cells", "result": 0.0109, "unit": "µM"},
      {"measurement": "IC50", "setting": "primary human T cells", "result": 5.45, "unit": "µM"},
      {"measurement": "IC50", "setting": "[1]", "result": 0.0121, "unit": "µM"},
      {"measurement": "IC50", "setting": "[2]", "result": 0.0294, "unit": "µM"},
      {"measurement": "IC50", "setting": "[3]", "result": 0.00483, "unit": "µM"},
      {"measurement": "IC50", "setting": "[4]", "result": 0.000847, "unit": "µM"}
    ]},
    {"smiles": "CC(C)N1CCC2(CC1)Oc1ccc(-c3ccc(C(=O)NCc4cncs4)cn3)cc1C(=O)N2C", "note": "[6-(1′-isopropyl-3-methyl-4-oxo-3,4 dihydrospiro[benzo[e][1,3]oxazine-2,4′-piperidin]-6-yl)-N-(thiazol-5-ylmethyl)nicotinamide]", "values": [
      {"measurement": "IC50", "setting": "Recombinant NAMPT enzyme", "result": 0.107, "unit": "µM"},
      {"measurement": "IC50", "setting": "primary human B cells", "result": 0.0254, "unit": "µM"},
      {"measurement": "IC50", "setting": "primary human T cells", "result": 1.55, "unit": "µM"},
      {"measurement": "IC50", "setting": "[1]", "result": 0.033, "unit": "µM"},
      {"measurement": "IC50", "setting": "[2]", "result": 0.0757, "unit": "µM"},
      {"measurement": "IC50", "setting": "[3]", "result": 0.0176, "unit": "µM"},
      {"measurement": "IC50", "setting": "[4]", "result": 0.00214, "unit": "µM"}
    ]},
    {"smiles": "COCCCN1CCC2(CC1)CC(=O)c1cc(-c3ccc(C(=O)NCc4cncs4)cn3)ccc1O2", "note": "[6-(1′-(3-methoxypropyl)-4-oxospiro[chroman-2,4′-piperidin]-6-yl)-N-(thiazol-5-ylmethyl)nicotinamide]", "values": [
      {"measurement": "IC50", "setting": "Recombinant NAMPT enzyme", "result": 0.141, "unit": "µM"},
      {"measurement": "IC50", "setting": "primary human B cells", "result": 0.0438, "unit": "µM"},
      {"measurement": "IC50", "setting": "primary human T cells", "result": 3.29, "unit": "µM"},
      {"measurement": "IC50", "setting": "[1]", "result": 0.0196, "unit": "µM"},
      {"measurement": "IC50", "setting": "[2]", "result": 0.0544, "unit": "µM"},
      {"measurement": "IC50", "setting": "[3]", "result": 0.00938, "unit": "µM"},
      {"measurement": "IC50", "setting": "[4]", "result": 0.00183, "unit": "µM"}
    ]}
  ]
}
